The record followed here is patent US20130158024A1, “TRICYCLIC NECROSTATIN COMPOUNDS” (priority 2005, published 2013).

Where two headings read alike, the source gives them in different places.

Data set [1] deals with FADD-deficient Jurkat T cells treated with TNF-α. The data set can be described thus: Inhibition of necroptosis (CICD) in FADD-deficient Jurkat T cells treated with TNF-α, ATP-based viability. Type of data set: cell-based, human. The note with it: for antinecroptotic (anti-CICD) activity, in words: FADD-deficient Jurkat cells, TNFα.
Where [2] appears, read: Homo sapiens, Jurkat, 24 h, read-out: EC50 (μM) for inhibition of necroptosis.
Setting [3] is: 10 ng/mL human TNF-α, 24 hours, ATP-based viability, EC50 ± SD from at least two independent experiments, read-out: EC50 (μM) for inhibition of necroptosis.

A word on the EC50: it is the concentration that produces a half-maximal response. For the compound `COc1ccc([C@H]2[C@H]3C[C@H](N)c4ccc(OC)cc4C3=NN2C(C)=O)cc1` (relative stereo) [Compound 145, (3R,3aR,5S)-rel-2-acetyl-5-amino-3,3a,4,5-tetrahydro-3-(4-methoxyphenyl)-8-methoxy-2H-benz[g]indazole], the EC50 in data set [1] (setting [2]) was determined as 1.2 ± 0.38 µM.
Regarding `COc1ccc([C@H]2[C@H]3C[C@H](N(C)C)c4ccc(OC)cc4C3=NN2C(C)=O)cc1` (relative stereo) [Compound 146, (3R,3aR,5S)-rel-2-acetyl-5-(N,N-dimethylamino)-3,3a,4,5-tetrahydro-3-(4-methoxyphenyl)-8-methoxy-2H-benz[g]indazole], the EC50 in data set [1] (setting [2]) was determined as 5.1 ± 2.2 µM.
`COc1ccc([C@H]2[C@H]3CCc4ccc(OC)cc4C3=NN2C=O)cc1` (relative stereo) [Compound 147, (3R,3aR)-rel-2-formyl-3,3a,4,5-tetrahydro-3-(4-methoxyphenyl)-8-methoxy-2H-benz[g]indazole]: in data set [1] (setting [2]), the EC50 came out at 0.92 ± 0.091 µM.
Consider `COc1ccc([C@H]2[C@H]3CCc4ccc(OC)cc4C3=NN2C(=O)COC(C)=O)cc1` (relative stereo) [Compound 150, (3R,3aR)-rel-2-acetoxyacetyl-3,3a,4,5-tetrahydro-3-(4-methoxyphenyl)-8-methoxy-2H-benz[g]indazole], for which the 50% effective concentration (EC50) in data set [1] (setting [3]) was 3.1 ± 0.17 µM.
Turning to `COc1ccc([C@H]2[C@H]3CCc4ccc(OC)cc4C3=NN2C(N)=S)cc1` (relative stereo) [Compound 152, (3R,3aR)-rel-2-carbothioamide-3,3a,4,5-tetrahydro-3-(4-methoxyphenyl)-8-methoxy-2H-benz[g]indazole], the EC50 in data set [1] (setting [3]) worked out at 8.8 ± 3 µM.
On to `COc1ccc([C@H]2[C@H]3CCc4ccc(OC)cc4C3=NN2C(N)=O)cc1` (relative stereo) [Compound 153, (3R,3aR)-rel-2-carboxamide-3,3a,4,5-tetrahydro-3-(4-methoxyphenyl)-8-methoxy-2H-benz[g]indazole], for which, in data set [1] (setting [3]), the concentration giving a half-maximal response (EC50) was found to be 4.3 ± 2.9 µM.
For the compound `CNC(=S)N1N=C2c3cc(OC)ccc3CC[C@@H]2[C@@H]1c1ccc(OC)cc1` (relative stereo) [Compound 154, (3R,3aR)-rel-2-carbothioamide-3,3a,4,5-tetrahydro-3-(4-methoxyphenyl)-8-methoxy-N-methyl-2H-benz[g]indazole], the EC50 in data set [1] (setting [3]) worked out at 7.9 ± 2 µM.
Turning to `COc1ccc([C@H]2[C@H]3CCc4ccc(OC)cc4C3=NN2C(=N)N)cc1` (relative stereo) [Compound 157, (3R,3aR)-rel-2-carboxamidine-3,3a,4,5-tetrahydro-3-(4-methoxyphenyl)-8-methoxy-2H-benz[g]indazole], the EC50 in data set [1] (setting [3]) is more than 100 µM.
With `COCC(=O)N1N=C2c3cc(OC)ccc3CC[C@@H]2[C@@H]1c1ccc(OC)cc1` (relative stereo) [Compound 158, (3R,3aR)-rel-2-methoxyacetyl-3,3a,4,5-tetrahydro-3-(4-methoxyphenyl)-8-methoxy-2H-benz[g]indazole], in data set [1] (setting [3]), the EC50 was determined as 0.44 ± 0.24 µM.
For `COc1ccc2c(c1)CC[C@@H]1C2=NN(C(C)=O)[C@H]1c1ccc(F)cc1` (relative stereo) [Compound 162, (3R,3aS)-rel-2-acetyl-3,3a,4,5-tetrahydro-3-(4-fluorophenyl)-7-methoxy-2H-benz[g]indazole], in data set [1] (setting [2]), the EC50 was more than 100 µM.
In the case of `COc1ccc2c(c1)CC[C@H]1C2=NN(C(C)=O)[C@H]1c1ccc(F)cc1` (relative stereo) [Compound 163, (3R,3aR)-rel-2-acetyl-3,3a,4,5-tetrahydro-3-(4-fluorophenyl)-7-methoxy-2H-benz[g]indazole], the “antinecroptotic (anti-CICD) activity, in words” value (from here on “antinecroptotic”) in data set [1] is “loss of activity”. In data set [1] (setting [2]), the concentration for a half-maximal effect (EC50) was more than 100 µM.
As to `COc1ccc([C@H]2[C@@H]3CCc4ccc([N+](=O)[O-])cc4C3=NN2C(C)=O)cc1` (relative stereo) [Compound 168, (3R,3aS)-rel-2-acetyl-3,3a,4,5-tetrahydro-3-(4-methoxyphenyl)-8-nitro-2H-benz[g]indazole], the EC50 in data set [1] (setting [2]) is more than 100 µM.
`COc1ccc([C@H]2[C@H]3CCc4ccc([N+](=O)[O-])cc4C3=NN2C(C)=O)cc1` (relative stereo) [Compound 169, (3R,3aR)-rel-2-acetyl-3,3a,4,5-tetrahydro-3-(4-methoxyphenyl)-8-nitro-2H-benz[g]indazole]: in data set [1], the “antinecroptotic” value is listed as “diminished inhibitory activity”. In data set [1] (setting [2]), the concentration for a half-maximal effect (EC50) is 3.5 ± 1.5 µM.
In the case of `COc1ccc([C@H]2[C@@H]3CCc4ccc(F)cc4C3=NN2C(C)=O)cc1` (relative stereo) [Compound 170, (3R,3aS)-rel-2-acetyl-3,3a,4,5-tetrahydro-3-(4-methoxyphenyl)-8-fluoro-2H-benz[g]indazole], in data set [1] (setting [2]), the EC50 was determined as 2.7 ± 0.82 µM.
Take `COc1ccc([C@H]2[C@H]3CCc4ccc(F)cc4C3=NN2C(C)=O)cc1` (relative stereo) [Compound 171, (3R,3aR)-rel-2-acetyl-3,3a,4,5-tetrahydro-3-(4-methoxyphenyl)-8-fluoro-2H-benz[g]indazole]: the “antinecroptotic” value in data set [1] is recorded as “tolerated”. Also, the concentration for a half-maximal effect (EC50) in data set [1] (setting [2]) turned out to be 0.28 ± 0.032 µM.
Consider `COc1ccc2c(c1)C1=NN(C(C)=O)[C@@H](c3ccc(O[N+](=O)[O-])cc3)[C@H]1CC2` (relative stereo) [Compound 172, (3R,3aR)-rel-2-acetyl-3,3a,4,5-tetrahydro-3-(4-nitroxyphenyl)-8-methoxy-2H-benz[g]indazole], for which the concentration giving a half-maximal response (EC50) in data set [1] (setting [2]) was 1.8 ± 0.38 µM.
Regarding `COc1ccc([C@H]2[C@H]3CCc4c(OC)cccc4C3=NN2C(C)=O)cc1` (relative stereo) [Compound 173, (3R,3aR)-rel-2-acetyl-3,3a,4,5-tetrahydro-3-(4-methoxyphenyl)-6-methoxy-2H-benz[g]indazole], in data set [1], the “antinecroptotic” value was “loss of activity”. Also, the EC50 in data set [1] (setting [2]) is more than 100 µM.
Turning to `COc1ccc2c(c1)C1=NN(C(C)=O)[C@@H](c3ccc(OCc4ccccc4)cc3)[C@H]1CC2` (relative stereo) [Compound 174, (3R,3aR)-rel-2-acetyl-3,3a,4,5-tetrahydro-3-(4-benzyloxyphenyl)-8-methoxy-2H-benz[g]indazole], the “antinecroptotic” value in data set [1] is “detrimental to activity to varying degrees”. In addition, the EC50 in data set [1] (setting [2]) was more than 100 µM.
Consider `COc1ccc2c(c1)C1=NN(C(C)=O)[C@@H](c3ccc(O)cc3)[C@H]1CC2` (relative stereo) [Compound 175, (3R,3aR)-rel-2-acetyl-3,3a,4,5-tetrahydro-3-(4-hydroxyphenyl)-8-methoxy-2H-benz[g]indazole], for which, in data set [1], the “antinecroptotic” value is on record as “detrimental to activity to varying degrees”. Moreover, the EC50 in data set [1] (setting [2]) worked out at 5.9 ± 1.4 µM.
Turning to `CC(=O)N1N=C2c3cc(O)ccc3CC[C@@H]2[C@@H]1c1ccc(O)cc1` (relative stereo) [Compound 176, (3R,3aR)-rel-2-acetyl-3,3a,4,5-tetrahydro-3-(4-hydroxyphenyl)-8-hydroxy-2H-benz[g]indazole], the EC50 in data set [1] (setting [2]) is more than 100 µM.
Take `COc1ccc([C@H]2[C@H]3CCc4cccc(OC)c4C3=NN2C(C)=O)cc1` (relative stereo) [Compound 180, (3R,3aR)-rel-2-acetyl-3,3a,4,5-tetrahydro-3-(4-methoxyphenyl)-9-methoxy-2H-benz[g]indazole]: the “antinecroptotic” value in data set [1] is “loss of activity”. For the same compound, the EC50 in data set [1] (setting [2]) is more than 50 µM.
`COc1ccc([C@H]2[C@H]3CCc4ccc(OCc5ccccc5)cc4C3=NN2C(C)=O)cc1` (relative stereo) [Compound 181, (3R,3aR)-rel-2-acetyl-3,3a,4,5-tetrahydro-3-(4-methoxyphenyl)-8-benzyloxy-2H-benz[g]indazole]: the “antinecroptotic” value in data set [1] is on record as “diminished activity”. The EC50 in data set [1] (setting [2]) is 5 ± 0.7 µM.
Turning to `COc1ccc2c(c1)C1=NN(C(C)=O)[C@@H](c3ccc(SC)cc3)[C@H]1CC2` (relative stereo) [Compound 182, (3R,3aR)-rel-2-acetyl-3,3a,4,5-tetrahydro-3-(4-thiomethoxyphenyl)-8-methoxy-2H-benz[g]indazole], the concentration for a half-maximal effect (EC50) in data set [1] (setting [3]) came to 1.1 ± 0.69 µM. Moreover, the “antinecroptotic” value in data set [1] was “detrimental to activity to varying degrees”.
Turning to `COc1ccc([C@H]2[C@H]3CCc4ccc(OCCN5CCOCC5)cc4C3=NN2C(C)=O)cc1` (relative stereo) [Compound 183, (3R,3aR)-rel-2-acetyl-3,3a,4,5-tetrahydro-3-(4-methoxyphenyl)-8-(4-morpholino)ethoxy-2H-benz[g]indazole], the EC50 in data set [1] (setting [3]) was more than 50 µM. Besides, in data set [1], the “antinecroptotic” value is recorded as “diminished activity”.
As a reminder, the melting point is the temperature of the solid-liquid transition. `COc1ccc([C@H]2[C@@H]3CCc4ccc(OC)cc4C3=NN2C=O)cc1` (relative stereo) [Compound 195, (3R,3aS)-rel-2-formyl-3,3a,4,5-tetrahydro-3-(4-methoxyphenyl)-8-methoxy-2H-benz[g] indazole] yielded a melting point of 166 to 168 °C.
On the same count and under the same terms, to `COc1cc2c(cc1OC)C1=NN(C(C)=O)[C@@H](c3ccc(F)cc3)[C@@H]1CC2` (relative stereo) [Compound 198, (3R,3aS)-rel-2-acetyl-3,3a,4,5-tetrahydro-3-(4-fluorophenyl)-7,8-dimethoxy-2H-benz[g]indazole] belongs 231 to 233 °C.
Consider `CCN1N=C2c3cc(OC)ccc3CC[C@@H]2[C@@H]1c1ccc(OC)cc1` (relative stereo) [Compound 213, (3R,3aR)-rel-2-ethyl-3,3a,4,5-tetrahydro-3-(4-methoxyphenyl)-8-methoxy-2H-benz[g]indazole], for which the “antinecroptotic” value in data set [1] is reported as “complete loss of necroptosis inhibitory activity”. Besides, in data set [1] (setting [2]), the EC50 is more than 100 µM.
Consider `CN1C(=O)C(Cc2c[nH]c3c(Cl)cccc23)NC1=S` (stereo not drawn) [Compound 7-Cl-Nec-1], for which the EC50 in data set [1] (Jurkat FADD deficient cells treated with TNFα, read-out: EC50) was 0.182 µM. The “increase in activity relative to Nec-1” value in data set [1] (addition of a chlorine to the phenyl ring of Nec-1) is “approximately 2.7 fold”.
In the case of `CN1C(=O)N[C@H](Cc2c[nH]c3c(Cl)cccc23)C1=O` [R-7-Cl—O-Nec-1], the concentration giving a half-maximal response (EC50) in data set [1] (Homo sapiens, Jurkat FADD deficient cells treated with TNFα, read-out: EC50) amounted to 0.047 µM. Besides, the “potency at inhibiting CICD relative to the (S)-enantiomer” value in data set [1] (enantiomers of 7-Cl—O-Nec-1) was “about 4 times”.
